The source of these data is ChEMBL document CHEMBL2021814, “Fragment-based and structure-guided discovery and optimization of Rho kinase inhibitors” (J Med Chem, 2012).

The target in assay [1] is Rho-associated protein kinase 1 (Homo sapiens, UniProt Q13464). In words: Inhibition of human His-puritin-tagged ROCK1 expressed in Sf9 cells after 1 hr by FRET-based enzyme-coupled assay.
The target of assay [2] is Rho-associated protein kinase 2 (Homo sapiens, UniProt O75116). The experiment in a line: Inhibition of ROCK2 after 1 hr by FRET-based enzyme-coupled assay.
Sequence of Rho-associated protein kinase 2 (O75116 whole entry): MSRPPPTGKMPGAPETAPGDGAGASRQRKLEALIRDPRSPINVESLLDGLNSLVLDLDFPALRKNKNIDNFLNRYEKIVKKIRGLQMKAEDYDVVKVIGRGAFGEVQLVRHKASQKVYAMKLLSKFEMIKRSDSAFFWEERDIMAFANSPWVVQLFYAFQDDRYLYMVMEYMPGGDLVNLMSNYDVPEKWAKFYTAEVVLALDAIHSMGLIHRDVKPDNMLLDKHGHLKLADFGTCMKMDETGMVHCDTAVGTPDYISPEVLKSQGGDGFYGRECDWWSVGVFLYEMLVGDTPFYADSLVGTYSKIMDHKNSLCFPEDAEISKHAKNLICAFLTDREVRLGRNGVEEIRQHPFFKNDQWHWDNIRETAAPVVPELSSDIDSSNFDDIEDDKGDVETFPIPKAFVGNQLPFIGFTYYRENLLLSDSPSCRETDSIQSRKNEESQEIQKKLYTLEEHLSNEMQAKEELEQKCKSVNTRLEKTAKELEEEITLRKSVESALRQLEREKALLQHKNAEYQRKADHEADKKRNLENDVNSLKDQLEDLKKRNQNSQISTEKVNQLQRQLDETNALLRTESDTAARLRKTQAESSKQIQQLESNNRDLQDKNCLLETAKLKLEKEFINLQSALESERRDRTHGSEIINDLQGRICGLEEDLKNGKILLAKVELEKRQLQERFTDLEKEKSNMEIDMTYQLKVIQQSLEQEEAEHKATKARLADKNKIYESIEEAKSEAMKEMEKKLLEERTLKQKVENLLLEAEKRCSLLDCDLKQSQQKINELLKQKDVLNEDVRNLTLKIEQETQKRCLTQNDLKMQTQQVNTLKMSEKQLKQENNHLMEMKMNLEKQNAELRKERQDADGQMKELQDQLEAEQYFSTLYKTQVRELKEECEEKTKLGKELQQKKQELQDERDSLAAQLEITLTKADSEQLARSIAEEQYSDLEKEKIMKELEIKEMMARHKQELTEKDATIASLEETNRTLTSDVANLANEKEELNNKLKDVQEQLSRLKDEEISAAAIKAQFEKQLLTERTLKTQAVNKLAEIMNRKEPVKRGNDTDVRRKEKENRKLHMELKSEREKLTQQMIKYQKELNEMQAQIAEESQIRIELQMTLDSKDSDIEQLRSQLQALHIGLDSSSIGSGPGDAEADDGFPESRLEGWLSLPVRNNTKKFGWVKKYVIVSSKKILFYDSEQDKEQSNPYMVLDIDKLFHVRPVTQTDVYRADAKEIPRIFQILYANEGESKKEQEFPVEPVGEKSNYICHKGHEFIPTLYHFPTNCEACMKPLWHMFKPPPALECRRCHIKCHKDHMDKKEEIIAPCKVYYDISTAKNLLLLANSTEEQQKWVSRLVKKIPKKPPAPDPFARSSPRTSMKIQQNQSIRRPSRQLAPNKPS

Sequence of Rho-associated protein kinase 1 (Q13464 whole entry): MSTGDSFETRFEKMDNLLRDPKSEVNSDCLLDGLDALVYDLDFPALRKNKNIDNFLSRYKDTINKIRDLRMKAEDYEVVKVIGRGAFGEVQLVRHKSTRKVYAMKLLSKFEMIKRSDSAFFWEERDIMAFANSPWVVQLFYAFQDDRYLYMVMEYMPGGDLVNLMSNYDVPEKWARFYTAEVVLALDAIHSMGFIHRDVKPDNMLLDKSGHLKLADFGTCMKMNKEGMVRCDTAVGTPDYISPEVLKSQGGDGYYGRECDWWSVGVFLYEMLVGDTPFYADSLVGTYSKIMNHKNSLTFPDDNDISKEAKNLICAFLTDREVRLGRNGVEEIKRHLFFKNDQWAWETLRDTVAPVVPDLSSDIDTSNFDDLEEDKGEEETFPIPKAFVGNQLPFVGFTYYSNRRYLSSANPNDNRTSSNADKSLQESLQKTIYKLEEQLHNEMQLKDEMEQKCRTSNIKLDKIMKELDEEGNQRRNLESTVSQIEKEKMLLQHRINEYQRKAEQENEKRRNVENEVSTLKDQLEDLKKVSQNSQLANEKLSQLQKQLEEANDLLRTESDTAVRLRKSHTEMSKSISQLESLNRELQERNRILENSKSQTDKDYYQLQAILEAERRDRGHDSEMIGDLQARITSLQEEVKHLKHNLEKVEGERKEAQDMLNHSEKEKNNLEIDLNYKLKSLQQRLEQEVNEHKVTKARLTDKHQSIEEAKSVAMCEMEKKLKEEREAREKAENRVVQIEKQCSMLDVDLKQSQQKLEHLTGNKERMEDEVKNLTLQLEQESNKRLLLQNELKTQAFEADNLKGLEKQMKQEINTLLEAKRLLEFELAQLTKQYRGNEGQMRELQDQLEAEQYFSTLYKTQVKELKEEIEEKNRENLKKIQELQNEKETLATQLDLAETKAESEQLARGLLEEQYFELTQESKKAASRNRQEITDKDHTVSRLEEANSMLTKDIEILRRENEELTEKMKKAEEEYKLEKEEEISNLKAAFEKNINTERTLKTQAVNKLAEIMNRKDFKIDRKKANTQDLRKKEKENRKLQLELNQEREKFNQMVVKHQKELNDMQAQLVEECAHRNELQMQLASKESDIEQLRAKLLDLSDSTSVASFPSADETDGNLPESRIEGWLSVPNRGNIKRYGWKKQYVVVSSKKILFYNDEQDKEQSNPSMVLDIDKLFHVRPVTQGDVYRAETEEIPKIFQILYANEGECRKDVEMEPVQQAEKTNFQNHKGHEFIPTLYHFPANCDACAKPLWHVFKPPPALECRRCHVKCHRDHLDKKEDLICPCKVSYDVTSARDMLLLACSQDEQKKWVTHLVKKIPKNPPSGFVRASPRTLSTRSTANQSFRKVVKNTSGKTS

As for `O=C(Nc1ccncc1)c1cnccc1-c1ccc(F)cc1`, the concentration for half-maximal inhibition (IC50) in assay [1] and in assay [2] was above 400 µM each time.
Take `O=C(Nc1ccncc1)c1cncc(-c2ccc(F)cc2)c1`: the concentration for half-maximal inhibition (IC50) in assay [1] and in assay [2] was above 400 µM in each case.

One may read the IC50 as the midpoint of a concentration-inhibition curve.
